For assay [1], the system named is Plasmodium falciparum. As to the kind of experiment: microbe, parasite or virus in culture.
Description: Antimalarial activity against Plasmodium falciparum 3D7 in erythrocytes
The test system of assay [2] is Plasmodium falciparum. As to the kind of experiment: microbe, parasite or virus in culture. The source holds these as a separate data set.
Description: Antimalarial activity against Plasmodium falciparum Dd2 in erythrocytes

With `CCCOc1ccc(/C=C/C(=O)Nc2ccc(NC(=O)/C=C/c3ccc(OCCC)cc3)c(C(=O)c3ccccc3)c2)cc1`, the figures for the IC50 with Plasmodium falciparum [1] and in the assay on Plasmodium falciparum [2] were 20000 nM and 23000 nM, respectively.

On to `CCCOc1ccc(/C=C/C(=O)Nc2ccc(NC(=O)Cc3ccc(C(F)(F)F)cc3)c(C(=O)c3ccccc3)c2)cc1`, for which the values for the IC50 with Plasmodium falciparum [1] and in the assay with Plasmodium falciparum [2] were 100 nM and 120 nM, respectively.

Turning to `CCCOc1ccc(/C=C/C(=O)Nc2ccc(NC(=O)Cc3ccc(Cl)cc3)c(C(=O)c3ccccc3)c2)cc1`, the IC50 (commonly the midpoint of a concentration-inhibition curve) was 270 nM in the assay with Plasmodium falciparum [1] and 350 nM in the assay on Plasmodium falciparum [2].

For the compound `CCCOc1ccc(/C=C/C(=O)Nc2ccc(NC(=O)c3cccc4ccccc34)c(C(=O)c3ccccc3)c2)cc1`, the IC50 with Plasmodium falciparum [1] came to 2700 nM; with Plasmodium falciparum [2], 3400 nM.

With `CCCOc1ccc(/C=C/C(=O)Nc2ccc(NC(=O)c3ccccc3)c(C(=O)c3ccccc3)c2)cc1`, the IC50 in the assay with Plasmodium falciparum [1] is 6500 nM; in the assay with Plasmodium falciparum [2], 9000 nM.

With `CCCOc1ccc(/C=C/C(=O)Nc2ccc(NC(=O)Cc3ccc(C)cc3)c(C(=O)c3ccccc3)c2)cc1`, the figures for the IC50 in the assay with Plasmodium falciparum [1] and in the assay on Plasmodium falciparum [2] were 250 nM and 340 nM, respectively.

On to `CCCOc1ccc(/C=C/C(=O)Nc2ccc(NC(=O)Cc3ccccc3)c(C(=O)c3ccccc3)c2)cc1`, for which the IC50 in the assay with Plasmodium falciparum [1] was 1900 nM; in the assay with Plasmodium falciparum [2], 2500 nM.

For the compound `CCCOc1ccc(/C=C/C(=O)Nc2ccc(NC(=O)Cc3ccccc3Br)c(C(=O)c3ccccc3)c2)cc1`, the IC50 with Plasmodium falciparum [1] is 2000 nM; in the assay on Plasmodium falciparum [2] it was 2800 nM.

Regarding `CCCCN(CCCC)CC(O)c1cc(Cl)cc2c1-c1ccc(Cl)cc1C2=Cc1ccc(Cl)cc1` (centres undefined) [LUMEFANTRINE], the figures for the IC50 in the assay with Plasmodium falciparum [1] and in the assay on Plasmodium falciparum [2] were 29 nM and 30 nM, respectively.

Consider `CCCOc1ccc(/C=C/C(=O)Nc2ccc(NC(=O)Cc3ccc(Br)cc3)c(C(=O)c3ccccc3)c2)cc1`, for which the IC50 with Plasmodium falciparum [1] is 140 nM; with Plasmodium falciparum [2], 310 nM.

In the assay on Plasmodium falciparum [1], `C=C[C@H]1CN2CC[C@H]1C[C@H]2[C@H](O)c1ccnc2ccc(OC)cc12` [QUININE] returned a half-maximal inhibitory concentration (IC50) of 96 nM.

`CCCOc1ccc(/C=C/C(=O)Nc2ccc(NC(=O)Cc3ccccc3C)c(C(=O)c3ccccc3)c2)cc1`: the IC50 was determined as 1400 nM in the assay with Plasmodium falciparum [1] and 2400 nM with Plasmodium falciparum [2].

With `CCCOc1ccc(/C=C/C(=O)Nc2ccc(NC(=O)Cc3ccc(OC)cc3)c(C(=O)c3ccccc3)c2)cc1`, the IC50 with Plasmodium falciparum [1] amounted to 1200 nM; in the assay on Plasmodium falciparum [2] it was 1300 nM.

The compound `CCc1nc(N)nc(N)c1-c1ccc(Cl)cc1` [PYRIMETHAMINE] gave an IC50 in the assay on Plasmodium falciparum [1] of 3 nM. This lies in the single-digit nanomolar range.

With `CC1(C)N=C(N)N=C(N)N1c1ccc(Cl)cc1` [CYCLOGUANIL], in the assay with Plasmodium falciparum [1], 7.5 nM corresponded to half-maximal inhibition (IC50).

For the compound `CCCOc1ccc(/C=C/C(=O)Nc2ccc(NC(=O)Cc3ccc(-c4ccccc4)cc3)c(C(=O)c3ccccc3)c2)cc1`, the results for the IC50 in the assay on Plasmodium falciparum [1] and in the assay with Plasmodium falciparum [2] were 19000 nM and 24000 nM, respectively.

The values are drawn from ChEMBL document CHEMBL1135059, “Structure-activity relationships of novel anti-malarial agents. Part 3: N-(4-acylamino-3-benzoylphenyl)-4-propoxycinnamic acid amides” (Bioorg Med Chem Lett, 2002).
